In patent US20130130241A1, “ANDROGEN RECEPTOR ISOFORMS AND METHODS” (Regents of the University of Minnesota, priority 2010, published 2013):

Key:
[1] = system: LNCaP cells expressing truncated AR isoforms; settings: Watson et al., 2010; cited from earlier work
[2] = system: patients with ADI prostate cancer; settings: Phase II trial; Scher et al., 2010; cited from earlier work
22Rv1 cells = settings: Dehm et al., 2008; cited from earlier work
androgen receptor = experiment: AR knock-down by siRNA in 22Rv1 cells, Western blot; format: cell-based, human; settings: for expression of androgen receptor isoforms (Western blot): FIG. 3B
Experimental: FIG. 3. A) Schematic of androgen receptor mRNA isoforms expressed in 22Rv1 cells. DBD*, Exon 3-duplicated AR. B) 22Rv1 cells were electroporated with siRNAs targeted to Exons […]. androgen receptor and ERK-2 levels were determined. C) Rabbit antisera were raised against an Exon 2b-derived peptide. Equal amounts of 22Rv1 lysates were immunoprecipitated with crude antisera, or antibody purified on an immobilized Exon2b-peptide column, non-specific rabbit IgG, or a rabbit polyclonal antibody specific for the androgen receptor NTD. Western blots were performed with a mouse monoclonal antibody specific for the androgen receptor NTD.
We have investigated mechanisms of prostate cancer therapy resistance in cell- and xenograft-based models of prostate cancer progression with a focus on ligand-independent androgen receptor activation (Dehm and Tindall, 2006 J Biol Chem 281:27882-93; Dehm and Tindall, 2007 Mol Endocrinol 21:2855-63). One model of interest is the ADI 22Rv1 prostate cancer cell line, which was derived from an androgen-dependent CWR22 prostate cancer xenograft that relapsed during androgen depletion (Sramkoski et al., 1999 In Vitro Cell Dev Biol Anim 35:403-9). […] The Exon 1 and Exon 7 targeted siRNAs were purchased from Dharmacon, Inc. (Lafayette, Colo.). The sequences are as follows:
Truncated androgen receptor from 22Rv1 cells appears as a doublet in Western blot experiments (FIG. 3B). Because 3′ RACE experiments identified AR 1/2/2b and AR 1/2/3/2b as alternatively spliced androgen receptor isoforms in this cell line, we pursued the hypothesis that these two discrete bands represented AR 1/2/2b and AR 1/2/3/2b (Dehm et al., 2008 Cancer Res 68:5469-77). […] To this end, we tested siRNAs targeted to AR Exon 1, AR Exon 3, or AR Exon 7 (FIG. 3A).
Western blotting of CWR22Pc and 22Rv1 lysates with AR (Santa Cruz N-20), ERK-2 (Santa Cruz D-2), and ARV-7 (Precision Antibody #AG10008) antibodies was performed exactly as described (Dehm et al., 2008 Cancer Res 68:5469-77).

[3] = system: androgen receptor target genes; settings: 22Rv1 cells; Dehm et al., 2008; cited from earlier work

| Compound | androgen-independent growth of LNCaP cells expressing truncated AR isoforms [1] | share of CRPCa patients with robust decrease in serum PSA levels (at least 50%), stabilized bone disease, conversion of CTC counts to favorable [2] | androgen-independent proliferation of 22Rv1 cells (22Rv1 cells) | expression of a ~80 kDa androgen receptor protein species (androgen receptor) | expression of androgen receptor isoforms (Western blot) (androgen receptor) | androgen-independent expression of androgen receptor target genes [3] |
| --- | --- | --- | --- | --- | --- | --- |
| CNC(=O)c1ccc(N2C(=S)N(c3ccc(C#N)c(C(F)(F)F)c3)C(=O)C2(C)C)cc1F [MDV3100] | inhibit | one-half | – | – | – | – |
| AR Exon 1-targeted siRNA: Dharmacon siRNA duplex targeted to AR Exon 1; sense SEQ ID NO: 1, antisense SEQ ID NO: 2 (sense CAAGGGAGGUUACACCAAAUU; antisense UUUGGUGUAACCUCCCUUGUU; listed as RNA, chemistry not given here) | – | – | inhibited | knocked-down | knocked down expression of all androgen receptor isoforms | inhibited |
| AR Exon 7-targeted siRNA: Dharmacon siRNA duplex targeted to AR Exon 7; sense SEQ ID NO: 3, antisense SEQ ID NO: 4 (sense GGAACUCGAUCGUAUCAUUUU; antisense AAUGAUACGAUCGAGUUCCUU; listed as RNA, chemistry not given here) | – | – | not | – | selectively knocked down expression of full-length androgen receptor | not |
